Experimental data published in patent US11945822B2, “Pyrazolo-triazine and/or pyrazolo-pxrimidine derivatives as selective inhibitor of cyclin dependent kinase” (QURIENT CO., LTD., priority 2018, dated 2024).

Target: T1, CDK7/Cyclin H/MNAT1 (Homo sapiens, UniProt P50613)
T1 construct: purchased Invitrogen PR6749B
Assay: Enzymatic assay for CDK7 (FRET based LANCE Ultra kinase assay)
Format: biochemical
Settings: CDK7 over CDK1
How it was run: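 Inhibition was measured at Km ATP by time-resolved FRET between a Eu anti-phospho antibody and a phosphorylated ULight peptide. The enzyme was the purified CDK7/cyclin complex, and data were curve-fitted.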

T1 sequence (P50613 whole entry): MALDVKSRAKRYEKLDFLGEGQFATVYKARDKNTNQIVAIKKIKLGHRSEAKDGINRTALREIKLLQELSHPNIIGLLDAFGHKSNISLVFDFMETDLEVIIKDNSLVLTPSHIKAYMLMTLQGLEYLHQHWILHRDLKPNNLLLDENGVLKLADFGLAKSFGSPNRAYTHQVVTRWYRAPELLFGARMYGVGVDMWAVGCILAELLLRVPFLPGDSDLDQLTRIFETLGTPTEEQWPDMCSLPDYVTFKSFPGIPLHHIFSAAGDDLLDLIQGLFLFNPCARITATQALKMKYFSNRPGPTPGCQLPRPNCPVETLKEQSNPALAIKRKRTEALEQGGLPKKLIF
T1 sequence (P51946 whole entry partner): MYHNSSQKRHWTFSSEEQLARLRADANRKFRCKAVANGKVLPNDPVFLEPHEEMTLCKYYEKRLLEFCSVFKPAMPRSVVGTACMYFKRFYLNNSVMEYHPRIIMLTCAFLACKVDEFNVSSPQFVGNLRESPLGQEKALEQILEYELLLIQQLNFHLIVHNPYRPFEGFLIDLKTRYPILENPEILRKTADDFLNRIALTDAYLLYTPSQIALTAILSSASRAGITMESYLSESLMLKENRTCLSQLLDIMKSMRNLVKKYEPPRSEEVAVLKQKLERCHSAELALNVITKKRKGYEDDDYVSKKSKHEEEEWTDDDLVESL
T1 sequence (P51948 whole entry partner): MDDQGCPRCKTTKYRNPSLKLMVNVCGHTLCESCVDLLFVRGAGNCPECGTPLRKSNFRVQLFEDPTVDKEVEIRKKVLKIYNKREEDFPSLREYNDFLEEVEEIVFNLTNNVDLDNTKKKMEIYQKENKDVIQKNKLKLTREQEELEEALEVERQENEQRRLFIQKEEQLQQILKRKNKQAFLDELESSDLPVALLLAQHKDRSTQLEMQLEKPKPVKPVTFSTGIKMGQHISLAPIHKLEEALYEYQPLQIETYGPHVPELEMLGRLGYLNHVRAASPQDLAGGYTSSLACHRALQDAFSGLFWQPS

Structure (SMILES)	CDK1/CDK7: Selectivity of CDK7 inhibition over CDK1 inhibition
CC(C)c1cnn2c(NCc3ccccc3-n3cccn3)nc(NC3CCNCC3)nc12 [Compound 40]	A (A=greater than 200 fold)
CC(C)c1cnn2c(NCc3cccc(-n4cccn4)c3)nc(N3CCC(N)CC3)nc12 [Compound 47]	B (B=less than 200 fold, but greater than 20 fold)
CC(C)c1cnn2c(NCc3cccc(Oc4ccccc4)c3)nc(N3CCC(N)CC3)nc12 [Compound 51]	B (B=less than 200 fold, but greater than 20 fold)
CCCc1ccccc1CNc1nc(N2CCC(N)CC2)nc2c(C(C)C)cnn12 [Compound 55]	B (B=less than 200 fold, but greater than 20 fold)
CC(C)c1cnn2c(NCc3ccccc3OCc3ccccc3)nc(N3CCC(N)CC3)nc12 [Compound 57]	A (A=greater than 200 fold)

Same assay, conditions: CDK7 over CDK2

Structure (SMILES)	CDK2/CDK7: Selectivity of CDK7 inhibition over CDK2 inhibition
CC(C)c1cnn2c(NCc3ccccc3-n3cccn3)nc(NC3CCNCC3)nc12 [Compound 40]	B (B=less than 200 fold, but greater than 20 fold)
CC(C)c1cnn2c(NCc3cccc(-n4cccn4)c3)nc(N3CCC(N)CC3)nc12 [Compound 47]	B (B=less than 200 fold, but greater than 20 fold)
CC(C)c1cnn2c(NCc3cccc(Oc4ccccc4)c3)nc(N3CCC(N)CC3)nc12 [Compound 51]	B (B=less than 200 fold, but greater than 20 fold)
CCCc1ccccc1CNc1nc(N2CCC(N)CC2)nc2c(C(C)C)cnn12 [Compound 55]	B (B=less than 200 fold, but greater than 20 fold)
CC(C)c1cnn2c(NCc3ccccc3OCc3ccccc3)nc(N3CCC(N)CC3)nc12 [Compound 57]	A (A=greater than 200 fold)

Same assay, conditions: CDK7 over CDK5

CDK5/CDK7: Selectivity of CDK7 inhibition over CDK5 inhibition	Structure (SMILES)
C (C=less than 20 fold)	CC(C)c1cnn2c(NCc3ccccc3-n3cccn3)nc(NC3CCNCC3)nc12 [Compound 40]
C (C=less than 20 fold)	CC(C)c1cnn2c(NCc3cccc(-n4cccn4)c3)nc(N3CCC(N)CC3)nc12 [Compound 47]
C (C=less than 20 fold)	CCCc1ccccc1CNc1nc(N2CCC(N)CC2)nc2c(C(C)C)cnn12 [Compound 55]

Structure (SMILES)	CDK5/CDK7: Selectivity of CDK7 inhibition over CDK5 inhibition
CC(C)c1cnn2c(NCc3cccc(Oc4ccccc4)c3)nc(N3CCC(N)CC3)nc12 [Compound 51]	B (B=less than 200 fold, but greater than 20 fold)
CC(C)c1cnn2c(NCc3ccccc3OCc3ccccc3)nc(N3CCC(N)CC3)nc12 [Compound 57]	B (B=less than 200 fold, but greater than 20 fold)

Same assay, conditions: read-out: CDK7 enzymatic activity (IC50 range)

IC50 [nM]	Structure (SMILES)
< 100	CC(C)c1cnn2c(NCc3ccccc3-n3cccn3)nc(NC3CCNCC3)nc12 [Compound 40]
< 100	CC(C)c1cnn2c(NCc3cccc(-n4cccn4)c3)nc(N3CCC(N)CC3)nc12 [Compound 47]
< 100	CC(C)c1cnn2c(NCc3cccc(Oc4ccccc4)c3)nc(N3CCC(N)CC3)nc12 [Compound 51]
< 100	CCCc1ccccc1CNc1nc(N2CCC(N)CC2)nc2c(C(C)C)cnn12 [Compound 55]
< 100	CC(C)c1cnn2c(NCc3ccccc3OCc3ccccc3)nc(N3CCC(N)CC3)nc12 [Compound 57]

Target: T2, CDK2/Cyclin A (Homo sapiens, UniProt P24941)
T2 construct: purchased Invitrogen PV6290
Assay: Enzymatic assay for CDK2 (FRET based LANCE Ultra kinase assay)
Format: biochemical
Settings: read-out: CDK2 enzymatic activity (IC50 range)
How it was run: (§1)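 LANCE Ultra TR-FRET: ULight-MBP peptide (68 nM) with ATP at Km, […], 60 min at 23° C. EDTA plus Eu-anti-phospho-MBP added, another 60 min, then 665/615 nm emission read. Compounds tested as 8-dose 4-fold DMSO dilutions.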

IC50 [nM]	Structure (SMILES)
100 to 1000	CC(C)c1cnn2c(NCc3ccccc3-n3cccn3)nc(NC3CCNCC3)nc12 [Compound 40]
100 to 1000	CC(C)c1cnn2c(NCc3cccc(-n4cccn4)c3)nc(N3CCC(N)CC3)nc12 [Compound 47]
> 1000	CC(C)c1cnn2c(NCc3cccc(Oc4ccccc4)c3)nc(N3CCC(N)CC3)nc12 [Compound 51]
100 to 1000	CCCc1ccccc1CNc1nc(N2CCC(N)CC2)nc2c(C(C)C)cnn12 [Compound 55]
> 1000	CC(C)c1cnn2c(NCc3ccccc3OCc3ccccc3)nc(N3CCC(N)CC3)nc12 [Compound 57]

Test system: MOLT-4
Assay: Cellular MOLT-4 viability assay (CellTiter-Glo, 72 hours)
Format: cell-based
Settings: Homo sapiens, MOLT4 viability assay
Description: All cell lines were routinely tested for mycoplasma.
The effect of the CDK7 inhibitor to inhibit the growth of target cancer cells was evaluated through the 72 hours time period of viability assay. Briefly, the candidate cell line ware plated in 96 well plate at the following density of cells respectively. […] DMSO solvent without compound served as a control and final DMSO concentration less than 0.1%. After 72 hours of incubation at 37° C., 5% CO2 incubator, cells were analyzed for the viability using the CellTiter-Glo Luminescent Cell Viability Assay (Promega, Cat #G7570). All viability assays were performed in duplicate and Luminescence was read using an Envision (Perkin Elmer, USA). Data was analyzed using XLfit software.

IC50 [nM]	Structure (SMILES)
> 10000	CC(C)c1cnn2c(NCc3ccccc3-n3cccn3)nc(NC3CCNCC3)nc12 [Compound 40]
1000 to 10000	CC(C)c1cnn2c(NCc3cccc(-n4cccn4)c3)nc(N3CCC(N)CC3)nc12 [Compound 47]
1000 to 10000	CC(C)c1cnn2c(NCc3cccc(Oc4ccccc4)c3)nc(N3CCC(N)CC3)nc12 [Compound 51]
1000 to 10000	CCCc1ccccc1CNc1nc(N2CCC(N)CC2)nc2c(C(C)C)cnn12 [Compound 55]
1000 to 10000	CC(C)c1cnn2c(NCc3ccccc3OCc3ccccc3)nc(N3CCC(N)CC3)nc12 [Compound 57]

Target: T3, CDK5/p25 (Homo sapiens, UniProt Q00535)
T3 construct: purchased Invitrogen PR8543B
T3 sequence (Q00535 whole entry): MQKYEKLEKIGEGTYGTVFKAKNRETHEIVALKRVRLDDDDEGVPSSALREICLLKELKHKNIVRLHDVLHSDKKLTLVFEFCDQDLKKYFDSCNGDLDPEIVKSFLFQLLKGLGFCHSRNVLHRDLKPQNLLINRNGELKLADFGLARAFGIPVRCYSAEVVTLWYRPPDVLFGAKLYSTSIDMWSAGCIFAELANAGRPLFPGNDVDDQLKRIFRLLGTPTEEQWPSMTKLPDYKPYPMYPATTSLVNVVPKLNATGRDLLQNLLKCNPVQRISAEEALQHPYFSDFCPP
T3 sequence (Q15078 99-307 partner limits assumed): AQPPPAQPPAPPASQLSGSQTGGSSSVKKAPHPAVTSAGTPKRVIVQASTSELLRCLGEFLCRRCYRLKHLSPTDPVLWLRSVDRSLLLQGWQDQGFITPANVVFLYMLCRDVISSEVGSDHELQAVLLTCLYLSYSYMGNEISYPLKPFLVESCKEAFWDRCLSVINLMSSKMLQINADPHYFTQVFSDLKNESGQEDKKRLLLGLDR
Assay: Enzymatic assay for CDK5 (FRET based LANCE Ultra kinase assay)
Format: biochemical
Settings: read-out: CDK5 enzymatic activity (IC50 range)
How it was run: as §1

IC50 [nM]	Structure (SMILES)
100 to 1000	CC(C)c1cnn2c(NCc3ccccc3-n3cccn3)nc(NC3CCNCC3)nc12 [Compound 40]
< 100	CC(C)c1cnn2c(NCc3cccc(-n4cccn4)c3)nc(N3CCC(N)CC3)nc12 [Compound 47]
> 1000	CC(C)c1cnn2c(NCc3cccc(Oc4ccccc4)c3)nc(N3CCC(N)CC3)nc12 [Compound 51]
100 to 1000	CCCc1ccccc1CNc1nc(N2CCC(N)CC2)nc2c(C(C)C)cnn12 [Compound 55]
100 to 1000	CC(C)c1cnn2c(NCc3ccccc3OCc3ccccc3)nc(N3CCC(N)CC3)nc12 [Compound 57]

Target: T4, CDK1/Cyclin B (Homo sapiens, UniProt P06493)
T4 construct: purchased Invitrogen PR4768C
T4 sequence (P06493 whole entry): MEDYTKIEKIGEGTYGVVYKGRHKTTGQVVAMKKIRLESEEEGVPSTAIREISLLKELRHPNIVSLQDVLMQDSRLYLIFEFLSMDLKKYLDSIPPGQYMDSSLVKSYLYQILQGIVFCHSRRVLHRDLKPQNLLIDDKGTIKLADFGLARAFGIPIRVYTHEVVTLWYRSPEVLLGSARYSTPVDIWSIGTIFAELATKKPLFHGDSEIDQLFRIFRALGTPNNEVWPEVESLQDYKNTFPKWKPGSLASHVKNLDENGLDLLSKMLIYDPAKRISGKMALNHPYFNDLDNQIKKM
T4 sequence (P14635 whole entry partner): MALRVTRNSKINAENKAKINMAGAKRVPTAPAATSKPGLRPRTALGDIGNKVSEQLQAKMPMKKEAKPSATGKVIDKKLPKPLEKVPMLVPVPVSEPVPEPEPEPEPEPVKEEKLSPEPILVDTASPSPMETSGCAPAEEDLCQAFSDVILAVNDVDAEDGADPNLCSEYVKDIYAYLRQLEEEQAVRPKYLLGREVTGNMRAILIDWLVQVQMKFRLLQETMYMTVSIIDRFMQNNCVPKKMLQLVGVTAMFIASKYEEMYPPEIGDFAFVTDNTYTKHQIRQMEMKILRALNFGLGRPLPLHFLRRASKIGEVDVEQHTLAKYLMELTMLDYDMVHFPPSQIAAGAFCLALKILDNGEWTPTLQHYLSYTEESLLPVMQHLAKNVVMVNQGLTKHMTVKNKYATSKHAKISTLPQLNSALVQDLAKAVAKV
Assay: Enzymatic assay for CDK1 (FRET based LANCE Ultra kinase assay)
Format: biochemical
Settings: read-out: CDK1 enzymatic activity (IC50 range)
How it was run: as §1

IC50 [nM]	Structure (SMILES)
> 1000	CC(C)c1cnn2c(NCc3ccccc3-n3cccn3)nc(NC3CCNCC3)nc12 [Compound 40]
100 to 1000	CC(C)c1cnn2c(NCc3cccc(-n4cccn4)c3)nc(N3CCC(N)CC3)nc12 [Compound 47]
> 1000	CC(C)c1cnn2c(NCc3cccc(Oc4ccccc4)c3)nc(N3CCC(N)CC3)nc12 [Compound 51]
100 to 1000	CCCc1ccccc1CNc1nc(N2CCC(N)CC2)nc2c(C(C)C)cnn12 [Compound 55]
> 1000	CC(C)c1cnn2c(NCc3ccccc3OCc3ccccc3)nc(N3CCC(N)CC3)nc12 [Compound 57]

Test system: MV4-11
Assay: Cellular MV4-11 viability assay (CellTiter-Glo, 72 hours)
Format: cell-based
Settings: Homo sapiens
How it was run: (§2)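 CellTiter-Glo luminescence read in duplicate after 72 h compound exposure (37 °C, 5% CO2); DMSO-only control, final DMSO under 0.1%.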

IC50 [nM]	Structure (SMILES)
< 1000	CC(C)c1cnn2c(NCc3ccccc3-n3cccn3)nc(NC3CCNCC3)nc12 [Compound 40]

Test system: H460
Assay: Cellular H460 viability assay (CellTiter-Glo, 72 hours)
Format: cell-based
Settings: Homo sapiens, NCI-H460
How it was run: as §2

IC50 [nM]	Structure (SMILES)
< 1000	CC(C)c1cnn2c(NCc3ccccc3-n3cccn3)nc(NC3CCNCC3)nc12 [Compound 40]
< 1000	CC(C)c1cnn2c(NCc3cccc(-n4cccn4)c3)nc(N3CCC(N)CC3)nc12 [Compound 47]
1000 to 10000	CC(C)c1cnn2c(NCc3cccc(Oc4ccccc4)c3)nc(N3CCC(N)CC3)nc12 [Compound 51]
1000 to 10000	CCCc1ccccc1CNc1nc(N2CCC(N)CC2)nc2c(C(C)C)cnn12 [Compound 55]
1000 to 10000	CC(C)c1cnn2c(NCc3ccccc3OCc3ccccc3)nc(N3CCC(N)CC3)nc12 [Compound 57]

Test system: HCT116
Assay: Cellular HCT116 viability assay (CellTiter-Glo, 72 hours)
Format: cell-based
Settings: Homo sapiens, HCT-116
How it was run: as §2

IC50 [nM]	Structure (SMILES)
< 1000	CC(C)c1cnn2c(NCc3cccc(-n4cccn4)c3)nc(N3CCC(N)CC3)nc12 [Compound 47]
1000 to 10000	CC(C)c1cnn2c(NCc3cccc(Oc4ccccc4)c3)nc(N3CCC(N)CC3)nc12 [Compound 51]
